Patent US20090054304A1, “HETEROCYCLIC MODULATORS OF TGR5 FOR TREATMENT OF DISEASE” (KALYPSYS, INC., priority 2007, published 2009)

The molecules below were run against T1, human TGR5 (Homo sapiens, UniProt Q8TDU6) (assay: cAMP production assay in HEK293 cells stably expressing TGR5 (LANCE TR-FRET)). Conditions: 30 minutes stimulation, 1 mM IBMX, read-out: cAMP Production in 293-TGR5 Cells.
T1 construct: expressed in transfected cells
T1 sequence (Q8TDU6 1-330): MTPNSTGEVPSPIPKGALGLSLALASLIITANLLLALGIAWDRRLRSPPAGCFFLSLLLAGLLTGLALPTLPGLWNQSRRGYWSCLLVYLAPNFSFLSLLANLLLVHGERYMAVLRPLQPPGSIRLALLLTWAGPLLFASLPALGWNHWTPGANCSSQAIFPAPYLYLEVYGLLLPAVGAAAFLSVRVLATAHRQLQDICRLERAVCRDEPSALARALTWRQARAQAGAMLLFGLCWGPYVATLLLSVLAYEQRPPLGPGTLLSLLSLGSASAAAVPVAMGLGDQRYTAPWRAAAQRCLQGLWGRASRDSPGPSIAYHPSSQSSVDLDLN
Format: cell-based
Experimental: HEK293 cells stably expressing TGR5 (HEK293-TGR5) were established by stably transfecting HEK-293 cells with an expression vector (pcDNA 3.1, Invetrogen) inserted with human TGR5 cDNA using Fugene6 (Roche, Indianapolis, Ind.) according to conventional methods. Cells were grown in DMEM (invitrogen, Carlsbad, Calif.) supplemented with 10% FBS, 1% penicillin/streptomycin under geneticin selection. The presence of TGR5 transcripts in these cells was confirmed using branched DNA (bDNA, Genospectra, Inc., Fremont Calif.) following the manufacturer's protocol and using specific probes for human TGR5. cAMP production assay was performed in high throughput 1536 well format using LANCE cAMP detection kit (Perkin Elmer Inc., Boston, Mass.) according to the manufacturer's protocol. Briefly, HEK293-TGR5 cells were harvested using non-enzymatic cell dissociation buffer (Invitrogen, Carlsbad, Calif.) and suspended in DMEM supplemented with 0.1% FBS at a density of 800,000 cells/ml. Alexa antibody was added to the cell suspension, and 4 ul of the mixture was dispensed in white opaque tissue culture treated Greiner 1536 well plates (USA Scientific, Inc., Ocala, Fla.). After an overnight incubation at 37C in an atmosphere of 10% CO2 and 95% humidity, 1 ul of 5 mM IBMX (Sigma, St. Louis, Mo.) solution in DMEM was dispensed for a final concentration of 1 mM. Cells were then stimulated with test compounds for 30 minutes, after which time 5 ul of detection reagent was added and incubated for 1-7 hrs at room temperature. TR-FRET signal was detected using the Viewlux (Perkin Elmer Inc., Boston Mass.). EC50 values were determined using Graph Pad Prizm analysis (GraphPad Software, Inc). The EC50 values for a wide range of bile acids generated from this assay were in agreement with the values published in the scientific literature. […] The symbol (+) denotes an EC50 value of ≦10 μM while the symbol (−) denotes an EC50 value of >10 μM (see Table 1).

SMILES | EC50
CC(C)n1ncc2cc(CNCc3ccc(C(F)(F)F)cc3)c(-c3ccsc3)nc21 [Example 1, 1-(1-isopropyl-6-(thiophen-3-yl)-1H-pyrazolo[3,4-b]pyridin-5-yl)-N-(4-(trifluoromethyl)benzyl)methanamine] | ≤ 10 µM
COc1ccc2cc(CNCCc3ccc(Br)cc3)c(-c3ccsc3)nc2n1 [Example 11, 2-(4-bromophenyl)-N-((7-methoxy-2-(thiophen-3-yl)-1,8-naphthyridin-3-yl)methyl)ethanamine] | ≤ 10 µM
COc1cc2nc(-c3ccsc3)c(CNCCc3ccc(Br)cc3)cc2cn1 [Example 9, 2-(4-bromophenyl)-N-((7-methoxy-2-(thiophen-3-yl)-1,6-naphthyridin-3-yl)methyl)ethanamine] | ≤ 10 µM
CC(C)n1ncc2cc(CNCCc3ccc(Br)cc3)c(-c3ccsc3)nc21 [Example 2, 2-(4-Bromophenyl)-N-((1-isopropyl-6-(thiophen-3-yl)-1H-pyrazolo[3,4-b]pyridin-5-yl)methyl)ethanamine] | ≤ 10 µM
Brc1ccc(CCNCc2cc3sccc3nc2-c2ccsc2)cc1 [Example 5, 2-(4-bromophenyl)-N-((5-(thiophen-3-yl)thieno[3,2-b]pyridin-6-yl)methyl)ethanamine] | ≤ 10 µM
O=c1cc2nc(-c3ccsc3)c(CNCCc3ccc(Br)cc3)cc2c[nH]1 [Example 10, 3-((4-bromophenethylamino)methyl)-2-(thiophen-3-yl)-1,6-naphthyridin-7(6H)-one] | > 10 µM
O=c1ccc2cc(CNCCc3ccc(Br)cc3)c(-c3ccsc3)nc2[nH]1 [Example 12, 6-((4-bromophenethylamino)methyl)-7-(thiophen-3-yl)-1,8-naphthyridin-2(1H)-one] | ≤ 10 µM
Cc1nn(C)c2nc(-c3ccsc3)c(CNCc3ccc(C(F)(F)F)cc3)cc12 [Example 4, 1-(1,3-dimethyl-6-(thiophen-3-yl)-1H-pyrazolo[3,4-b]pyridin-5-yl)-N-(4-(trifluoromethyl)benzyl)methanamine] | > 10 µM

More lines, now with the values ahead:

EC50 | SMILES
≤ 10 µM | Cc1nn(C)c2nc(-c3ccsc3)c(CNCCc3ccc(Br)cc3)cc12 [Example 3, 2-(4-bromophenyl)-N-((1,3-dimethyl-6-(thiophen-3-yl)-1H-pyrazolo[3,4-b]pyridin-5-yl)methyl)ethanamine]
≤ 10 µM | Brc1ccc(CCNCc2cc3ccncc3nc2-c2ccsc2)cc1 [Example 8, 2-(4-bromophenyl)-N-((2-(thiophen-3-yl)-1,7-naphthyridin-3-yl)methyl)ethanamine]
≤ 10 µM | FC(F)(F)c1ccc(CNCc2cc3ccsc3nc2-c2ccsc2)cc1 [Example 7, 1-(6-(thiophen-3-yl)thieno[2,3-b]pyridin-5-yl)-N-(4-(trifluoromethyl)benzyl)methanamine]
≤ 10 µM | Brc1ccc(CCNCc2cc3ccsc3nc2-c2ccsc2)cc1 [Example 6, 2-(4-bromophenyl)-N-((6-(thiophen-3-yl)thieno[2,3-b]pyridin-5-yl)methyl)ethanamine]
